This is an account of results in patent US11932601B2, “Immunoregulatory agents” (FLEXUS BIOSCIENCES, INC., priority 2014, dated 2024).

The structures appear in SMILES notation. Bounds are passed on as bounds.

This assay deals with T1, human IDO1 (Homo sapiens, UniProt P14902).
T1 construct: expressed in transfected cells
T1 sequence (P14902 whole entry): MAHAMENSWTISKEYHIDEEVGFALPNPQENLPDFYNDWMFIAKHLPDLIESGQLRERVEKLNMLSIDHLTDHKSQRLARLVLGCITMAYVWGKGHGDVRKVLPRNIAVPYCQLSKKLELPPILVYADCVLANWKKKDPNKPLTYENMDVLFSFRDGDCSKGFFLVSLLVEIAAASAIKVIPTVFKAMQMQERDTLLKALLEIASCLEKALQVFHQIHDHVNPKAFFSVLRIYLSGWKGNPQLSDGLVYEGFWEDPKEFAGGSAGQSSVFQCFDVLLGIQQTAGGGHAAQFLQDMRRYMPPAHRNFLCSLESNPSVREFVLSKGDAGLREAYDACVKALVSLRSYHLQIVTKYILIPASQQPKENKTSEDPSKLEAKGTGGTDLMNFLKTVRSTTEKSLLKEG
The assay can be described thus: HEK293 cells stably expressing human IDO1, IDO inhibition assay (kynurenine, Ehrlich reagent, absorbance 490 nm). It is filed as cell-based. Conditions: 20 hours incubation, 500 nM reference standard = 100% inhibition, read-out: HEK Human IDO-1 Biological Activity (IC50). As to the method: HEK293 cells were transfected with a pCDNA-based mammalian expression vector harboring human IDO1 cDNA (NM 002164.2) by electroporation. They were cultured in medium (DMEM with 10% FBS) containing 1 mg/ml G418 for two weeks. Clones of HEK293 cells that stably expressed human IDO1 protein were selected and expanded for IDO inhibition assay.
The human IDO1/HEK293 cells were seeded at 10,000 cells per 50 μL per well with RPMI/phenol red free media contains 10% FBS in a 384-well black wall clear bottom tissue culture plate (Matrix Technologies LLC) 100 nL of certain concentration of compound was then added to each well using ECHO liquid handling systems. The cells were incubated for 20 hours in 37° C. incubator with 5% CO2.
The compound treatments were stopped by adding Trichloroacetic Acid (Sigma-Aldrich) to a final concentration at 0.2%. The cell plate was further incubated at 50° C. for 30 minute. The equal volume supernatant […] and 0.2% (w/v) Ehrlich reagent (4-dimethylaminobenzaldehyde, Sigma-Aldrich) in glacial acetic acid were mixed in a new clear bottom 384-well plate. This plate was then incubated at room temperature for 30 minute. The absorbance at 490 nm was measured on Envision plate reader.
As to `CC(C(=O)Nc1ccc(Cl)cc1)C1CCC(c2cccc(-c3ccccc3)c2)CC1` (single isomer, unassigned) [Example 317c, 2-(4-([1,1′-biphenyl]-3-yl)cyclohexyl)-N-(4-chlorophenyl) propanamide], the half-inhibitory concentration (IC50) – broadly, the concentration at which inhibition is half-maximal – was above 250 nM.

Take `CC(C(=O)Nc1ccc(Cl)cc1)C1CCC(c2cccc(-c3ccccc3)c2)CC1` (single isomer, unassigned) [Example 317b, 2-(4-([1,1′-biphenyl]-3-yl)cyclohexyl)-N-(4-chlorophenyl) propanamide]: the IC50 is below 50 nM.

For the molecule `CC(C(=O)Nc1ccc(Cl)cc1)[C@H]1CC[C@H](Oc2ccnc(C(F)(F)F)c2)CC1` (mixture of isomers) [Example 323, (+/−)-N-(4-chlorophenyl)-2-(trans-4-((2-(trifluoromethyl)pyridin-4-yl)oxy)cyclohexyl) propanamide], the IC50 is below 50 nM.

With `Cc1c(C2CCC(C(C)C(=O)Nc3ccc(Cl)cc3)CC2)ccnc1F` (single isomer, unassigned) [Example 310b, (+/-)N-(4-chlorophenyl)-2-(4-(2-fluoro-3-methylpyridin-4-yl)cyclohexyl) propanamide], the IC50 was below 50 nM.

On to `Cc1nccc(O[C@H]2CC[C@H](C(C)C(=O)Nc3ccc(Cl)cc3)CC2)c1Cl` (single isomer, unassigned) [Example 320, rac-2-((trans)-4-((3-chloro-2-methylpyridin-4-yl)oxy)cyclohexyl)-N-(4-chlorophenyl)propanamide], for which the IC50 was below 50 nM.

With `Cc1cnccc1C1CCC(C(C)C(=O)Nc2ccc(Cl)cc2)CC1` (single isomer, unassigned) [Example 313c, N-(4-chlorophenyl)-2-(4-(3-methylpyridin-4-yl)cyclohexyl) propanamide], the IC50 is above 250 nM.

As to `COc1cc([C@H]2CC[C@@H]([C@H](C)C(=O)Nc3ccc(Cl)cc3)CC2)ccn1` (single isomer, unassigned) [Example 307d, N-(4-Chlorophenyl)-2-(4-(2-methoxypyridin-4-yl)cyclohexyl)propanamide], the IC50 is below 50 nM.

`CC(C(=O)Nc1ccc(Cl)cc1)C1CCC(c2ccncc2F)CC1` (single isomer, unassigned) [Example 318d, N-(4-chlorophenyl)-2-(4-(3-fluoropyridin-4-yl)cyclohexyl) propanamide]: the half-maximal inhibitory concentration (IC50) was below 250 nM.

Consider `Cc1cnccc1C1CCC(C(C)C(=O)Nc2ccc(Cl)cc2)CC1` (single isomer, unassigned) [Example 313d, N-(4-chlorophenyl)-2-(4-(3-methylpyridin-4-yl)cyclohexyl) propanamide], for which the IC50 was below 50 nM.

For `COc1cc([C@H]2CC[C@@H]([C@H](C)C(=O)Nc3ccc(Cl)cc3)CC2)ccn1` (single isomer, unassigned) [Example 307e, N-(4-Chlorophenyl)-2-(4-(2-methoxypyridin-4-yl)cyclohexyl)propanamide], the IC50 is below 250 nM.

Turning to `CC(C(=O)Nc1ccc(Cl)cc1)C1CCC(c2ccnc(C(F)(F)F)c2)CC1` (single isomer, unassigned) [Example 312d, N-(4-chlorophenyl)-2-(4-(2-(trifluoromethyl)pyridin-4-yl)cyclohexyl) propanamide], the IC50 was below 250 nM.

`CC(C(=O)Nc1ccc(Cl)cc1)C1CCC(c2ccnc(C(F)(F)F)c2)CC1` (single isomer, unassigned) [Example 312c, N-(4-chlorophenyl)-2-(4-(2-(trifluoromethyl)pyridin-4-yl)cyclohexyl) propanamide]: the IC50 is below 50 nM.
